Reference: ChEMBL document CHEMBL4007425, “Drug Repurposing of Histone Deacetylase Inhibitors That Alleviate Neutrophilic Inflammation in Acute Lung Injury and Idiopathic Pulmonary Fibrosis via Inhibiting Leukotriene A4 Hydrolase and Blocking LTB4 Biosynthesis” (J Med Chem, 2017)
Active and inactive are the calls of the source. The rule behind the calls is not given here.

Tests used:
[1] = system: Mus musculus; assay: Anti-inflammatory activity in LPS-induced C57BL/6 mouse model of acute lung injury assessed as reduction in pulmonary edema by measuring lung wet/dry ratio at 25 mg/kg, ip pretreated for 1 hr followed LPS challenge after 24 hrs […]; type: functional, organism-based
[2] = organism: Mus musculus; conditions: C57BL/6, at 25 mg/kg
Description: Inhibition of LTB4 biosynthesis in LPS-induced C57BL/6 mouse model of acute lung injury BLAF at 25 mg/kg, ip by ELISA

[3] = molecular target: T1, Leukotriene A-4 hydrolase (LTA4H) aminopeptidase activity (Homo sapiens, UniProt P09960); assay: Inhibition of recombinant human LTA4H aminopeptidase activity expressed in Escherichia coli BL21 (DE3) pLysS assessed as formation of p-NA from Ala-p-NA at 10 uM preincubated for 10 mins followed by substrate addition measured after 10 mins
T1 sequence (P09960 whole entry): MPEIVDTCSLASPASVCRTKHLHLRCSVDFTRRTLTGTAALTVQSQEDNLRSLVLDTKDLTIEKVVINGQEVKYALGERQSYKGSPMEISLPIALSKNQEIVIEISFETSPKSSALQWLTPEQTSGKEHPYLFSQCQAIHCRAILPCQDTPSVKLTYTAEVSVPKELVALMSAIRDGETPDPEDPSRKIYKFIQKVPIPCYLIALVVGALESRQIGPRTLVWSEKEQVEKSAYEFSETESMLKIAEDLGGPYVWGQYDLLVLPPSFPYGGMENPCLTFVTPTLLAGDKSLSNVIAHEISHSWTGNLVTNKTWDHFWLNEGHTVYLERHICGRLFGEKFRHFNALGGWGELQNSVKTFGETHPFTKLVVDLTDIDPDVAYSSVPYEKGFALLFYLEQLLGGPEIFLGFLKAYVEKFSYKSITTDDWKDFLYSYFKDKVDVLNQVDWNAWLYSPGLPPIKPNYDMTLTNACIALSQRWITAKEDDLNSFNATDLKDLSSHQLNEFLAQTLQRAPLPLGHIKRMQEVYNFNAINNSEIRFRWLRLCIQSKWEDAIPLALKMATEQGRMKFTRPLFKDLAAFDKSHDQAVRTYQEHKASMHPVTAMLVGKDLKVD

[4] = molecular target: T2, Leukotriene A-4 hydrolase (Mus musculus, UniProt P24527); assay: Inhibition of LTA4H in C57BL/6 mouse assessed as reduction in LTB4 production pre-incubated for 30 mins before 5-(methylamino)-2-({(2R,3R,6S,8S,9R,11R)-3,9,11-trimethyl-8-[(1S)-1-methyl-2-oxo-2-(1H-pyrrol-2-yl)ethyl]-1,7-dioxaspiro[5.5]undec-2-yl}methyl)-1,3-benzoxazole-4-carboxylic acid stimulation for 30 mins by ELISA
T2 sequence (P24527 whole entry): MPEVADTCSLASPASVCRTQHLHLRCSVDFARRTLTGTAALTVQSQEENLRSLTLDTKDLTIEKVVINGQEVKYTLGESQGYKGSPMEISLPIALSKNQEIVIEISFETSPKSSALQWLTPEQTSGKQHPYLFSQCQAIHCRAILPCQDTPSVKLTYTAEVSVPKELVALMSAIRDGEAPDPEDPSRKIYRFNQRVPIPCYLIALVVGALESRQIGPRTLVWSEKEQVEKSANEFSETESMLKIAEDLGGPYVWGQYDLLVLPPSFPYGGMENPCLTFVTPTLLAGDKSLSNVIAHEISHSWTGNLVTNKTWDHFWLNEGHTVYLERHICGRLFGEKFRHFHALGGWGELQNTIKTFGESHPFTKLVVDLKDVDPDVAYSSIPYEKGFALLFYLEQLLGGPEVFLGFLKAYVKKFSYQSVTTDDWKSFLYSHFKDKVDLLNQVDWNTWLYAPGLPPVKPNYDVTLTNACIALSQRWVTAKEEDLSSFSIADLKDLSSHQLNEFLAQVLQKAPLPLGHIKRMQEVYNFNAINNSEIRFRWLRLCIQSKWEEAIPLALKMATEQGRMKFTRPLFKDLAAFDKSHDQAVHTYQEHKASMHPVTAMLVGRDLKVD

[5] = molecular target: T3, Leukotriene A-4 hydrolase (Homo sapiens, UniProt P09960); assay: Inhibition of recombinant human LTA4H aminopeptidase activity expressed in Escherichia coli BL21 (DE3) pLysS assessed as formation of p-NA from Ala-p-NA preincubated for 10 mins followed by substrate addition measured after 10 mins; type: ADME
T3 sequence (P09960 whole entry): T1 sequence (P09960 whole entry)

[6] = molecular target: T3, Leukotriene A-4 hydrolase; assay: Inhibition of recombinant human LTA4H Epoxide Hydrolase expressed in Escherichia coli BL21 (DE3) pLysS preincubated for 10 mins followed by addition of LTA4 as substrate measured after 15 mins by reverse-phase HPLC analysis
[7] = molecular target: T4, Polyunsaturated fatty acid lipoxygenase ALOX12 (Homo sapiens) (UniProt P18054); assay: Inhibition of recombinant human N-terminal His-tagged 12-LOX expressed in Escherichia coli assessed as conversion of arachidonic acid to HETEs measured for 300 secs by UV-visible spectrophotometric analysis
T4 sequence (whole entry): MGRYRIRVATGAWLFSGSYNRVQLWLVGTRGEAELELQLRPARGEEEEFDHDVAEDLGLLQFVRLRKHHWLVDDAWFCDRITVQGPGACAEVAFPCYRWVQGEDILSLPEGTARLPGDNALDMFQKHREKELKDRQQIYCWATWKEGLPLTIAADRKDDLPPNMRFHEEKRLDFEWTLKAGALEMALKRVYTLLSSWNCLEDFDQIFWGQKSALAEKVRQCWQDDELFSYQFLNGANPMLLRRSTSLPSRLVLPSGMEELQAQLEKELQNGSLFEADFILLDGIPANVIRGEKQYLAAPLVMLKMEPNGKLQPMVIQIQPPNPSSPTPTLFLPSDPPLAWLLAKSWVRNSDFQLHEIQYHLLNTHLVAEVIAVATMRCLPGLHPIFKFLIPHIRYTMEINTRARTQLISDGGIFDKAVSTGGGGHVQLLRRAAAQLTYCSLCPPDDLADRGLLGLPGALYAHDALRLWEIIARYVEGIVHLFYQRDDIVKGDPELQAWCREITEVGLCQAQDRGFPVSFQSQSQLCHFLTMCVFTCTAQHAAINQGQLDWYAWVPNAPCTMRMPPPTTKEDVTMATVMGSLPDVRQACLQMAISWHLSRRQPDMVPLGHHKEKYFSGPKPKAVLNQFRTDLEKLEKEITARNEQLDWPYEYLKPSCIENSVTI

[8] = system: Mus musculus; assay: Anti-inflammatory activity in LPS-induced C57BL/6 mouse model of acute lung injury assessed as reduction MPO activity at 25 mg/kg, ip pretreated for 1 hr followed LPS challenge measured after 24 hrs; type: functional, organism-based
[9] = system: Mus musculus; assay: Anti-inflammatory activity in BLM-induced C57BL/6 mouse model of acute lung neutrophilic inflammation assessed as LTB4 level at 50 mg/kg, ip qd for 7 days post BLM challenge measured on day 7 (reference value: 139.23 pg/ml); type: functional
[10] = system: Mus musculus; assay: Anti-inflammatory activity in LPS-induced C57BL/6 mouse model of acute lung injury assessed as reduction in IL-6 mRNA level pretreated intraperitoneally for 1 hr followed LPS challenge after 24 hrs by qRT-PCR method; type: functional
[11] = system: Mus musculus; assay: Anti-inflammatory activity in LPS-induced C57BL/6 mouse model of acute lung injury assessed as reduction in pathological changes at 10 to 50 mg/kg, ip pretreated for 1 hr followed LPS challenge measured after 24 hrs by hematoxylin and eosin staining based microscopy; type: functional, organism-based

Compound | Activity [1] | inhibition [2] | inhibition at 10 min, 10 µM ([3]; probe Ala-p-NA) | IC50 [4] | IC50 [5] | IC50 [6] | INH [7] | Activity [8] | Activity [9] | inhibition at 10 min, 10 µM [3] | Activity [10] | Activity [11]
CN(C)c1ccc(C(=O)NCCCCCCC(=O)NO)cc1 | Active | Active | > 50% | 790 nM | 300 nM | 680 nM | > 50 µM | Active |  |  |  | 
O=C(CCCCCCC(=O)Nc1ccccc1)NO [VORINOSTAT] | Active |  |  | 6150 nM | 1670 nM | 7650 nM | > 50 µM | Active | 43.19 pg/mL | > 50% | Dose-dependent effect | Active
